The values below come from ChEMBL document CHEMBL1149426 (Bioorg Med Chem Lett, 2006).

Structures are written as SMILES.

In data set [1] the target is D(2) dopamine receptor (Homo sapiens, UniProt P14416). Briefly: Binding affinity to human cloned dopamine D2 receptor.
The target of data set [2] is Adenosine receptor (Homo sapiens, UniProt P30542+P29275+P0DMS8+P29274). Briefly: Inhibitory activity against adenosine receptor. The data set is classed as protein assay.
Data set [3] is described as follows: Inhibitory activity against adrenergic receptor.
For data set [4], the target named is D(1A) dopamine receptor (Homo sapiens, UniProt P21728). Briefly: Inhibitory activity against dopamine D1 receptor.
Sequence of D(1A) dopamine receptor (P21728 whole entry): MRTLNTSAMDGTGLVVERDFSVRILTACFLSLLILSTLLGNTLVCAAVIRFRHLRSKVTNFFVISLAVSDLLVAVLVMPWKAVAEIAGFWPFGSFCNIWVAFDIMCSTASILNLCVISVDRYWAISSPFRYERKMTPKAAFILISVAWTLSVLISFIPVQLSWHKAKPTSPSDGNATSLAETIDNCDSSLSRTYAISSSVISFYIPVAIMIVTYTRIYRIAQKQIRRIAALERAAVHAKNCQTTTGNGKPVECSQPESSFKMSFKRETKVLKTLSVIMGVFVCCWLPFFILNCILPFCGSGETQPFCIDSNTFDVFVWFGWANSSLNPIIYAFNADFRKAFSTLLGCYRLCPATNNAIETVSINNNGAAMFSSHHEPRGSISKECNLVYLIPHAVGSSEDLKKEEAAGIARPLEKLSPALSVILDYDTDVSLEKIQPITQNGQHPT
The target of data set [5] is GABA-A receptor; anion channel. Description: Inhibitory activity against central benzodiazepine receptor. It counts as protein-complex assay.
Data set [6] addresses D(1B) dopamine receptor (Homo sapiens, UniProt P21918). Description: Inhibitory activity against dopamine D5 receptor.
A short description of data set [7]: Inhibitory activity against GABA receptor.
Data set [8] concerns the target Muscarinic acetylcholine receptor. Description: Inhibitory activity against muscarinic receptor. It counts as protein assay.
Data set [9] can be described thus: Inhibitory activity against 5HT receptor.
Data set [10] has as its target T1, Cholecystokinin receptor (Homo sapiens, UniProt P32239+P32238).
T1 sequence (P32239 whole entry): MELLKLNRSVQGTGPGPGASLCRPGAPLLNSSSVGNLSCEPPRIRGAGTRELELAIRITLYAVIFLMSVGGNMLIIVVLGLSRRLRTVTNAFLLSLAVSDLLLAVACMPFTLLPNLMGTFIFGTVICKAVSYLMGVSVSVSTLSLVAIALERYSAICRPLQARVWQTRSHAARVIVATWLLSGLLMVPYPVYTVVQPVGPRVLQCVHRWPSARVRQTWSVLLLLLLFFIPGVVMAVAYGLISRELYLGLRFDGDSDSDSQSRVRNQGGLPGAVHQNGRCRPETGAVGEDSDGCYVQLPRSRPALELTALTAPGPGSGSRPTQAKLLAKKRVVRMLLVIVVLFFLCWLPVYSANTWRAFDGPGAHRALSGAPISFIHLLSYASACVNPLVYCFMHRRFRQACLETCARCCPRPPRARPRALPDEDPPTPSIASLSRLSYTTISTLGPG
T1 sequence (P32238 whole entry): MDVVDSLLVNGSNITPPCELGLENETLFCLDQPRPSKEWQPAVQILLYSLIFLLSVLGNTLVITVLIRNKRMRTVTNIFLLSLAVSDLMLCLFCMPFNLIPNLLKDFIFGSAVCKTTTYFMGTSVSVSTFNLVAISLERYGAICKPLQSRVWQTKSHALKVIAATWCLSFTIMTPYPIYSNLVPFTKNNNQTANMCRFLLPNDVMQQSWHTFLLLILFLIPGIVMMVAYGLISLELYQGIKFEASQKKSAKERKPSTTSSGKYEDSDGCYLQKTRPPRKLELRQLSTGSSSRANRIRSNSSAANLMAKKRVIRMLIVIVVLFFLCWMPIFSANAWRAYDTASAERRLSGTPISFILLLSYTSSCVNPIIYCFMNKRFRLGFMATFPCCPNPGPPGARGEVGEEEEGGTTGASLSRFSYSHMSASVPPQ
Briefly: Inhibitory activity against cholecystokinin receptor. The data set is classed as protein assay.

Data set [11] has as its target Opioid receptors; mu/kappa/delta (Homo sapiens, UniProt P41145+P41143+P35372). Description: Inhibitory activity against opioid receptor. It counts as protein assay.
The nature of data set [12]: Inhibitory activity against neurotransmitter transporter.
For data set [13], the system named is Liver microsomes. Description: Metabolic stability in rat liver microsomes. The data set is classed as ADME, Microsome.
Data set [14] is filed under the species Canis familiaris. Briefly: Metabolic stability in dog liver microsomes. It counts as ADME, Canis lupus familiaris.
For data set [15], the system named is Liver microsomes. Description: Metabolic stability in human liver microsomes. It counts as ADME, Microsome. (In general: Microsomes from liver hold many membrane-bound enzymes, among them those of drug oxidation.)
Data set [16] in a line: Permeability across Caco-2 cell membrane. It counts as ADME, cell-based. Conditions: human.
Data set [17] deals with Rattus norvegicus. Briefly: Ability to restitute huddling in rat at 2.15 mg/kg, po. The data set is classed as functional.
The target in data set [18] is D(3) dopamine receptor (Homo sapiens, UniProt P35462). Description: Binding affinity to human cloned dopamine D3 receptor.
Sequence of D(3) dopamine receptor (P35462 whole entry): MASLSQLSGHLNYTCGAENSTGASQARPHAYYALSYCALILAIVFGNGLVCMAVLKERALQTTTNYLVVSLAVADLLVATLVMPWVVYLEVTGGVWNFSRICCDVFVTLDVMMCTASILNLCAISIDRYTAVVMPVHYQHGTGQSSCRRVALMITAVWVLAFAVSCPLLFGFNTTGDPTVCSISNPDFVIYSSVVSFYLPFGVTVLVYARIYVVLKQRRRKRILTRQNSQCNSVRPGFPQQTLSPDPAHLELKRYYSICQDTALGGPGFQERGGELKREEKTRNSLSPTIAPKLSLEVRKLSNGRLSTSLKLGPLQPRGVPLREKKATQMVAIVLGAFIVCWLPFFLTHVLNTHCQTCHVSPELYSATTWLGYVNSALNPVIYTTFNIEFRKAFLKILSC

Sequence of D(2) dopamine receptor (P14416 whole entry): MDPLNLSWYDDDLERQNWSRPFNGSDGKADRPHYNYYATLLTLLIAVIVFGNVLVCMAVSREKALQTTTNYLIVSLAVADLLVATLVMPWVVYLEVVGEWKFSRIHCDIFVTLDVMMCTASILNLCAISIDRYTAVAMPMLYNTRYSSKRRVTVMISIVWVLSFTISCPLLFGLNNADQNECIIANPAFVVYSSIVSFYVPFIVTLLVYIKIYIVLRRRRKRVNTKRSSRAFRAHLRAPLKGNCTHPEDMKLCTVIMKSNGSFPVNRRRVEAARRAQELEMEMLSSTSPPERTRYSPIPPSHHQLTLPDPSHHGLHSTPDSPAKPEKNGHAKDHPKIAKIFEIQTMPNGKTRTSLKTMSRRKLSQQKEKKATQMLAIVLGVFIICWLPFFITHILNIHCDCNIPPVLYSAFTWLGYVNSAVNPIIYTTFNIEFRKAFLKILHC
Sequence of D(1B) dopamine receptor (P21918 whole entry): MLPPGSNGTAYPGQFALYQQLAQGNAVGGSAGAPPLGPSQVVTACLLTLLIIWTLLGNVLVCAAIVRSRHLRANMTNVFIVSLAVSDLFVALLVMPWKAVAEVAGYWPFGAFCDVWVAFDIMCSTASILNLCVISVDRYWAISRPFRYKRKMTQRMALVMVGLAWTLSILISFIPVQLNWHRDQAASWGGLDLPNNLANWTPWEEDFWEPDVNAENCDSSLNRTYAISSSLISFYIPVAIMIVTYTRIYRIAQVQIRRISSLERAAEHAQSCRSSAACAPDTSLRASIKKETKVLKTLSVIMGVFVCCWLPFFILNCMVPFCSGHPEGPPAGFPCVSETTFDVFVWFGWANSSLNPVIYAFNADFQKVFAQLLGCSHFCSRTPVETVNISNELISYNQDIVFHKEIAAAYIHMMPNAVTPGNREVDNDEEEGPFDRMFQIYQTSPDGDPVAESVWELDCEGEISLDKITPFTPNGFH

`CC(C)(C)c1nc(N2CCN(CCCCN3C(=O)CCC(=O)c4ccccc43)CC2)cc(C(F)(F)F)n1`: the Ki (as a rule, a dissociation constant, usually derived from enzyme kinetics or from competition with a known ligand) in [1] worked out at 246 nM. Besides, the IC50 in data set [2], in data set [3], in [4], in data set [5], in [6] and in [7] was over 10 µM in each case. Moreover, the IC50 in data set [8], in data set [9], in data set [10], in [11] and in [12] was over 10 µM in each case. In addition, the Stability in data set [13], in data set [14] and in data set [15] was over 97% each time. Also, in data set [16], the Papp (usually a coefficient for how fast a substance crosses the barrier) is 0.33 ×10⁻⁶ cm/s. In [17], this compound yielded an Activity of 37%.

In [1], `CC(C)(C)c1nc(N2CCN(CCCCN3C(=O)CCCc4c(O)cccc43)CC2)cc(C(F)(F)F)n1` registered a Ki of 93 nM.

With `CC(C)(C)c1nc(N2CCN(CCCCN3C(=O)CC(=O)c4ccccc43)CC2)cc(C(F)(F)F)n1`, the figures for the Ki in [18] and in data set [1] were 39.6 nM and 142 nM, respectively.

Regarding `C/C(=C\CN1CCN(c2cc(C(F)(F)F)nc(C(C)(C)C)n2)CC1)CN1C(=O)CCc2ccccc21`, the figures for the Ki in [18] and in data set [1] were 58.9 nM and 669 nM, respectively.

For `CC(C)(C)c1nc(N2CCN(CCCCN3CCC(=O)CCC3=O)CC2)cc(C(F)(F)F)n1`, the inhibition constant (Ki) in data set [18] turned out to be 3.9 nM; in [1] it was 65 nM.

The compound `CC(C)(C)c1nc(N2CCN(CCCCCN3C(=O)CCc4ccccc43)CC2)cc(C(F)(F)F)n1` gave a Ki in data set [18] of 4050 nM.

`CC(C)(C)c1nc(N2CCN(C/C=C/CN3C(=O)CCc4ccccc43)CC2)cc(C(F)(F)F)n1` came in with a Ki in [1] of 254 nM.

As to `CC(C)(C)c1nc(N2CCN(CCCN3C(=O)CCc4ccccc43)CC2)cc(C(F)(F)F)n1`, the Ki in data set [18] was determined as 93.8 nM.

`CC(C)(C)c1nc(N2CCN(CCCCn3c(=O)ccc4ccccc43)CC2)cc(C(F)(F)F)n1`: the Ki stood at 11.2 nM in [18] and 151 nM in [1].

As to `COc1cccc2c1CCCC(=O)N2CCCCN1CCN(c2cc(C(F)(F)F)nc(C(C)(C)C)n2)CC1`, the Ki in [18] came out at 10.1 nM; in data set [1], 243 nM.

Take `C[C@@H](CCCN1C(=O)CCc2ccccc21)N1CCN(c2cc(C(F)(F)F)nc(C(C)(C)C)n2)CC1`: the results for the Ki in [18] and in data set [1] were 22.4 nM and 289 nM, respectively.

For the compound `COc1cc2c(cc1OC)N(CCCCN1CCN(c3cc(C(F)(F)F)nc(C(C)(C)C)n3)CC1)C(=O)CCC2=O`, the Ki in data set [1] stood at 467 nM.

As for `CC(C)(C)c1nc(N2CCN(CCCCN3C(=O)CCSc4ccccc43)CC2)cc(C(F)(F)F)n1`, the Ki in data set [18] came out at 9.6 nM; in data set [1] it was 83 nM.

Turning to `CC(C)(C)c1nc(N2CCN(CCCCN3C(=O)CCCc4ccccc43)CC2)cc(C(F)(F)F)n1`, the Ki in data set [18] is 16.8 nM; in data set [1] it was 118 nM.

On to `CC(C)(C)c1nc(N2CCN(CCCCN3C(=O)COc4ccccc43)CC2)cc(C(F)(F)F)n1`, for which the Ki in [18] was 12.1 nM; in data set [1], 354 nM.

As to `CC(C)(C)c1nc(N2CCN(CCCCN3C(=O)CCc4ccccc43)CC2)cc(C(F)(F)F)n1`, the Ki in [18] worked out at 3.4 nM; in [1], 126 nM.

`C[C@H](CCN1CCN(c2cc(C(F)(F)F)nc(C(C)(C)C)n2)CC1)CN1C(=O)CCc2ccccc21`: the Ki in data set [18] was 64.9 nM; in data set [1], 261 nM.

`CC(C)(C)c1nc(N2CCN(CCCCN3Cc4ccccc4CC3=O)CC2)cc(C(F)(F)F)n1`: the Ki in data set [18] was found to be 293 nM.
